{"source": "patent US20230348422A1", "about": "“ALBICIDIN DERIVATIVES, THEIR USE AND SYNTHESIS” (TECHNISCHE UNIVERSITÄT BERLIN, priority 2020, published 2023)", "test_in_all_cases": "Microdilution assay, MIC", "assay_type_in_all_cases": "cell-based", "key": {"M. phlei DSM 750": {"tested_on": "M. phlei DSM 750", "conditions": "Mycolicibacterium phlei, read-out: MIC M. phlei DSM 750"}, "E. coli BW25113": {"tested_on": "E. coli BW25113", "conditions": "Escherichia coli, read-out: MIC E. coli BW25113"}, "S. typhimurium TA 100": {"tested_on": "S. typhimurium TA 100", "conditions": "Salmonella enterica, 20 h, read-out: MIC S. typhimurium TA 100", "protocol": "(§1) The tests were performed using the micro dilution method.\n(§2) The determination of MIC values was performed according to the ninth edition of the Approved Standard M07-A9 (CLSI. Methods for Dilution Antimicrobial Susceptibility Tests for Bacteria That Grow Aerobically; Approved Standard-Ninth Edition. CLSI document M07-A9. Wayne, PA: Clinical and Laboratory Standards Institute; 2012.)\n(§3) The test was carried out for four different bacterial strains (E. coli DSM 1116 [gram negative], B. subtilis DSM 10 [gram positive], M. luteus DSM 1790 [gram positive], S. typhimurium TA100 [gram negative]). 20 μL of cryo stock of each strain were inoculated in 20 mL of LB media (Lysogeny broth: 10 g/L peptone, 5 g/L yeast extract, 5 g/L NaCl) followed by incubation over night at 37° C., 200 rpm. The test inoculum was adjusted by the 0.5 McFarland Standard (OD625 from 0.08 to 0.1). Within 15 min of preparation, the adjusted inoculum suspension was diluted in MHBII media (BBL TM Mueller-Hinton Broth II, Becton, Dickinson and Company, New Jersey/USA) so that each well contained approximately 5×10^5 CFU/mL in a final volume of 100 μL. 95 μL of the inoculum were applied per well and 5 μL of the (diluted) antibiotic substance were added.\n(§4) Previously the dry antibiotic compounds were dissolved in DMSO (100%) with a concentration of 2560 μg/mL and the resulting stock solutions were further diluted in DMSO (100%). 5 μL of each antibiotic dilution were applied to the microdilution tray to reach final concentrations of 64 μg/mL to 0.008 μg/mL. One row of each well plate was left as a growth control without antibiotic substances and another row of the microdilution tray was used as sterility control (only MHB II-media). The antimicrobial effect of the solvent (DMSO) was tested by adding 5 μL DMSO to several wells without antibiotics. Purity check and cell titer control were performed according to International Standard M07-A9 on Mueller-Hinton II Agar (Mueller Hinton II Broth, 15 g/L agar-agar). Both microdilution trays and agar plates were incubated at 37° C. for 20 h and subsequently analyzed visually.\n(§5) The potency of an antibiotic is determined by the minimum inhibitory concentration (MIC). Contrary to intuition, a particularly low value is equated with a high potency."}, "E. coli DSM 1116": {"tested_on": "E. coli DSM 1116", "conditions": "Escherichia coli, read-out: MIC E. coli DSM 1116", "protocol": "as §1, §2, §3, §4, §5"}, "M. luteus DSM 1790": {"tested_on": "M. luteus DSM 1790", "conditions": "Micrococcus luteus, read-out: MIC M. luteus DSM 1790", "protocol": "as §1, §2, §3, §4, §5"}, "B. subtilis DSM 10": {"tested_on": "B. subtilis DSM 10", "conditions": "Bacillus subtilis, read-out: MIC B. subtilis DSM 10", "protocol": "as §1, §2, §3, §4, §5"}, "[1]": {"conditions": "DSM750, Gram-positive, MHBII media, 37° C., 20 h"}, "[2]": {"conditions": "BW25113, Gram-negative, MHBII media, 37° C., 20 h"}, "[3]": {"conditions": "Gram-negative, MHBII media, 37° C."}, "[4]": {"conditions": "DSM1116, Gram-negative, MHBII media, 37° C., 20 h"}, "[5]": {"conditions": "DSM1790, Gram-positive, MHBII media, 37° C., 20 h"}, "[6]": {"conditions": "DSM10, Gram-positive, MHBII media, 37° C., 20 h"}}, "note": "Like-named read-outs stand apart in the source and are kept apart here."}
{"smiles": "COc1c(NC(=O)c2ccc(NC(=O)c3ccc(NC(=O)[C@H](Cc4cnn[nH]4)NC(=O)c4ccc(C#Cc5ccc(C#N)cc5)cc4)cc3)c(OC)c2O)ccc(C(=O)O)c1O", "note": "[Compound 1]", "values": [{"measurement": "MIC", "setting": "M. phlei DSM 750; DSM750, 20 h", "result": 1, "unit": "µg/mL"}, {"measurement": "MIC", "setting": "E. coli BW25113; BW25113, 20 h", "result": 0.031, "unit": "µg/mL"}, {"measurement": "MIC", "setting": "S. typhimurium TA 100", "result": "≤ 0.016", "unit": "µg/mL"}, {"measurement": "MIC", "setting": "E. coli DSM 1116; DSM1116, 20 h", "result": "≤ 0.016", "unit": "µg/mL"}, {"measurement": "MIC", "setting": "M. luteus DSM 1790; DSM1790, 20 h", "result": 0.25, "unit": "µg/mL"}, {"measurement": "MIC", "setting": "B. subtilis DSM 10; DSM10, 20 h", "result": 0.25, "unit": "µg/mL"}]}
{"smiles": "COc1ccc(C#Cc2ccc(C(=O)N[C@@H](Cc3cnn[nH]3)C(=O)Nc3ccc(C(=O)Nc4ccc(C(=O)Nc5ccc(C(=O)O)c(O)c5OC)c(O)c4OC)cc3)cc2)cc1", "note": "[Compound 2a]", "values": [{"measurement": "MIC", "setting": "M. phlei DSM 750; [1]", "result": 1, "unit": "µg/mL"}, {"measurement": "MIC", "setting": "E. coli BW25113; [2]", "result": 0.063, "unit": "µg/mL"}, {"measurement": "MIC", "setting": "S. typhimurium TA 100; [3]", "result": "≤ 0.016", "unit": "µg/mL"}, {"measurement": "MIC", "setting": "E. coli DSM 1116; [4]", "result": 0.063, "unit": "µg/mL"}, {"measurement": "MIC", "setting": "M. luteus DSM 1790; [5]", "result": 0.5, "unit": "µg/mL"}, {"measurement": "MIC", "setting": "B. subtilis DSM 10; [6]", "result": 0.25, "unit": "µg/mL"}]}
{"smiles": "COc1c(NC(=O)c2ccc(NC(=O)c3ccc(NC(=O)[C@H](Cc4cnn[nH]4)NC(=O)c4ccc(/C=C/c5ccc(O)cc5)cc4)cc3)c(OC)c2O)ccc(C(=O)O)c1O", "note": "[Compound 3]", "values": [{"measurement": "MIC", "setting": "M. phlei DSM 750; [1]", "result": 4, "unit": "µg/mL"}, {"measurement": "MIC", "setting": "E. coli BW25113; [2]", "result": 0.25, "unit": "µg/mL"}, {"measurement": "MIC", "setting": "S. typhimurium TA 100; [3]", "result": 0.125, "unit": "µg/mL"}, {"measurement": "MIC", "setting": "E. coli DSM 1116; [4]", "result": 0.5, "unit": "µg/mL"}, {"measurement": "MIC", "setting": "M. luteus DSM 1790; [5]", "result": 1, "unit": "µg/mL"}, {"measurement": "MIC", "setting": "B. subtilis DSM 10; [6]", "result": 0.5, "unit": "µg/mL"}]}
{"smiles": "COc1ccc(C#Cc2ccc(C(=O)N[C@@H](Cc3cnn[nH]3)C(=O)Nc3ccc(C(=O)Nc4ccc(C(=O)Nc5ccc(C(=O)O)c(O)c5OC)c(O)c4OC)cc3)cc2)cn1", "note": "[Compound 4]", "values": [{"measurement": "MIC", "setting": "M. phlei DSM 750; [1]", "result": 1, "unit": "µg/mL"}, {"measurement": "MIC", "setting": "E. coli BW25113; [2]", "result": 0.063, "unit": "µg/mL"}, {"measurement": "MIC", "setting": "S. typhimurium TA 100; [3]", "result": "≤ 0.016", "unit": "µg/mL"}, {"measurement": "MIC", "setting": "E. coli DSM 1116; [4]", "result": 0.063, "unit": "µg/mL"}, {"measurement": "MIC", "setting": "M. luteus DSM 1790; [5]", "result": 0.5, "unit": "µg/mL"}, {"measurement": "MIC", "setting": "B. subtilis DSM 10; [6]", "result": 0.25, "unit": "µg/mL"}]}
{"smiles": "COc1c(NC(=O)c2ccc(NC(=O)c3ccc(NC(=O)[C@H](Cc4cnn[nH]4)NC(=O)c4ccc(C#Cc5ccc(O)cc5)cc4)cc3)c(OC)c2O)ccc(C(=O)O)c1O", "note": "[Compound 5]", "values": [{"measurement": "MIC", "setting": "M. phlei DSM 750; [1]", "result": 1, "unit": "µg/mL"}, {"measurement": "MIC", "setting": "E. coli BW25113; [2]", "result": 0.125, "unit": "µg/mL"}, {"measurement": "MIC", "setting": "S. typhimurium TA 100; [3]", "result": 0.031, "unit": "µg/mL"}, {"measurement": "MIC", "setting": "E. coli DSM 1116; [4]", "result": 0.063, "unit": "µg/mL"}, {"measurement": "MIC", "setting": "M. luteus DSM 1790; [5]", "result": 2, "unit": "µg/mL"}, {"measurement": "MIC", "setting": "B. subtilis DSM 10; [6]", "result": 2, "unit": "µg/mL"}]}
{"smiles": "COc1c(NC(=O)c2ccc(NC(=O)c3ccc(NC(=O)[C@H](Cc4cnn[nH]4)NC(=O)c4ccc(C#Cc5ccc(F)cc5)cc4)cc3)c(OC)c2O)ccc(C(=O)O)c1O", "note": "[Compound 6]", "values": [{"measurement": "MIC", "setting": "M. phlei DSM 750; [1]", "result": 0.5, "unit": "µg/mL"}, {"measurement": "MIC", "setting": "E. coli BW25113; [2]", "result": 0.031, "unit": "µg/mL"}, {"measurement": "MIC", "setting": "S. typhimurium TA 100; [3]", "result": "≤ 0.016", "unit": "µg/mL"}, {"measurement": "MIC", "setting": "E. coli DSM 1116; [4]", "result": 0.031, "unit": "µg/mL"}, {"measurement": "MIC", "setting": "M. luteus DSM 1790; [5]", "result": 0.25, "unit": "µg/mL"}, {"measurement": "MIC", "setting": "B. subtilis DSM 10; [6]", "result": 0.25, "unit": "µg/mL"}]}
{"smiles": "COc1c(NC(=O)c2ccc(NC(=O)c3ccc(NC(=O)[C@H](Cc4cnn[nH]4)NC(=O)c4ccc(CCc5ccc(O)cc5)cc4)cc3)c(OC)c2O)ccc(C(=O)O)c1O", "note": "[Compound 9]", "values": [{"measurement": "MIC", "setting": "M. phlei DSM 750; [1]", "result": 4, "unit": "µg/mL"}, {"measurement": "MIC", "setting": "E. coli BW25113; [2]", "result": 0.25, "unit": "µg/mL"}, {"measurement": "MIC", "setting": "S. typhimurium TA 100; [3]", "result": 0.125, "unit": "µg/mL"}, {"measurement": "MIC", "setting": "E. coli DSM 1116; [4]", "result": 0.5, "unit": "µg/mL"}, {"measurement": "MIC", "setting": "M. luteus DSM 1790; [5]", "result": 2, "unit": "µg/mL"}, {"measurement": "MIC", "setting": "B. subtilis DSM 10; [6]", "result": 2, "unit": "µg/mL"}]}
